Source: US8362000B2, “Azetidinyl diamides as monoacylglycerol lipase inhibitors” (Janssen Pharmaceutica NV, priority 2009, dated 2013)
Where two headings read alike, the source gives them in different places. One block for each compound: values may come before it.

Target: T1, mutant MGL (Homo sapiens, UniProt Q99685, L169S/L176S)
T1 sequence (Q99685 1-303 L169S/L176S): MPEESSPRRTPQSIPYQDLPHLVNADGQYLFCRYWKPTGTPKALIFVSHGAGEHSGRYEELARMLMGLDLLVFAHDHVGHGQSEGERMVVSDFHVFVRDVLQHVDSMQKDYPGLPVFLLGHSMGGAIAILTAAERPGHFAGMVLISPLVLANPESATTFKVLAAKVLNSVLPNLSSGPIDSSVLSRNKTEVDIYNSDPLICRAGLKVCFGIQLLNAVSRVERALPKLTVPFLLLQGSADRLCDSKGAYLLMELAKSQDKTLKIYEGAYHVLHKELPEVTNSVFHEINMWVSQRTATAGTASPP
Test: MGL ThermoFluor assay - mutant
Assay type: binding

[1] = ThermoFluor concentration-response, read-out: MGL mutant ThermoFluor Kd
[2] = ThermoFluor thermal stability binding assay, read-out: MGL mutant ThermoFluor Kd

SMILES: O=C(c1ccccc1)N1CCN(C2CN(C(=O)c3ccc(NCc4ccccc4Cl)cc3)C2)CC1 [Cpd 492, N-(2-Chlorobenzyl)-4-({3-[4-(phenylcarbonyl)piperazin-1-yl]azetidin-1-yl}carbonyl)aniline]
Kd [1]: 0.167 µM

SMILES: O=C(c1ccccc1)N1CCN(C2CN(C(=O)c3ccc(NCc4ccc(Cl)c(Cl)c4)cc3)C2)CC1 [Cpd 493, N-(3,4-Dichlorobenzyl)-4-({3-[4-(phenylcarbonyl)piperazin-1-yl]azetidin-1-yl}carbonyl)aniline]
Kd [1]: 0.025 µM

SMILES: O=C(c1ccccc1)N1CCN(C2CN(C(=O)C3CCC(C(F)(F)F)CC3)C2)CC1 (stereo not drawn) [Cpd 502]
Kd [1]: > 76.7 µM

SMILES: O=C(c1ccccc1)N1CCN(C2CN(C(=O)C3CCC(c4ccc(Cl)cc4)CC3)C2)CC1 (stereo not drawn) [Cpd 503]
Kd [1]: 0.254 µM

SMILES: O=C(c1ccccc1)N1CCN(C2CN(C(=O)c3sc4cc(F)ccc4c3C3CC3)C2)CC1 [Cpd 528]
Kd [1]: 0.049 µM

SMILES: COc1cc(NCc2ccccc2)c(Cl)cc1C(=O)N1CC(N2CCN(C(=O)c3ccccc3)CC2)C1 [Cpd 529]
Kd [1]: 0.317 µM

SMILES: O=C(c1ccccc1)N1CCN(C2CN(C(=O)c3ccc(NC4CCC(F)(F)CC4)cc3)C2)CC1 [Cpd 530]
Kd [1]: 0.089 µM

SMILES: O=C(c1ccccc1)N1CCN(C2CN(C(=O)c3cccc(NCc4ccccc4)c3)C2)CC1 [Cpd 531, N-Benzyl-3-({3-[4-(phenylcarbonyl)piperazin-1-yl]azetidin-1-yl}carbonyl)aniline]
Kd [1]: 2.73 µM

SMILES: O=C(c1ccccc1)N1CCN(C2CN(C(=O)c3ccc(Oc4ccc(Br)cn4)cc3)C2)CC1 [Cpd 532]
Kd [1]: 2.33 µM

SMILES: CC(C)(C)OC(=O)N1CCC(c2cccc(C(=O)N3CC(N4CCN(C(=O)c5ccccc5)CC4)C3)c2)CC1 [Cpd 538]
Kd [2]: 2.59 µM

SMILES: O=C(Nc1cccc(C(=O)N2CC(N3CCN(C(=O)c4ccccc4)CC3)C2)c1)C1CCCCC1 [Cpd 539, N-[3-({3-[4-(Phenylcarbonyl)piperazin-1-yl]azetidin-1-yl}carbonyl)phenyl]cyclohexanecarboxamide]
Kd [1]: > 31.2 µM

SMILES: O=C(c1ccccc1)N1CCN(C2CN(C(=O)c3ccc(CNc4cccc(Cl)c4)cc3)C2)CC1 [Cpd 549]
Kd [1]: 0.06 µM

SMILES: O=C(c1ccccc1)N1CCN(C2CN(C(=O)c3ccc(CSc4cccc(Cl)c4)cc3)C2)CC1 [Cpd 551]
Kd [1]: 0.18 µM

SMILES: O=C(c1ccccc1)N1CCN(C2CN(C(=O)c3ccc(CNc4ccccc4F)cc3)C2)CC1 [Cpd 553]
Kd [1]: 0.372 µM

SMILES: O=C(c1ccccc1)N1CCN(C2CN(C(=O)c3ccc(CNc4c(F)cccc4F)cc3)C2)CC1 [Cpd 556]
Kd [1]: 0.097 µM

SMILES: O=C(c1ccccc1)N1CCN(C2CN(C(=O)c3ccc(OCc4ccc5ccccc5n4)cc3)C2)CC1 [Cpd 560]
Kd [2]: 0.652 µM

SMILES: O=C(c1ccccc1)N1CCN(C2CN(C(=O)c3cccc(CNc4ccccc4F)c3)C2)CC1 [Cpd 561]
Kd [1]: 0.542 µM

SMILES: O=C(c1ccccc1)N1CCN(C2CN(C(=O)c3cccn(Cc4cccc(Cl)c4)c3=O)C2)CC1 [Cpd 562, 1-(3-Chlorobenzyl)-3-({3-[4-(phenylcarbonyl)piperazin-1-yl]azetidin-1-yl}carbonyl)pyridin-2(1H)-one]
Kd [1]: > 31.2 µM

SMILES: O=C(c1ccccc1)N1CCN(C2CN(C(=O)c3ccc(=O)n(Cc4ccccc4)c3)C2)CC1 [Cpd 565, 1-Benzyl-5-({3-[4-(phenylcarbonyl)piperazin-1-yl]azetidin-1-yl}carbonyl)pyridin-2(1H)-one]
Kd [1]: > 31.2 µM

SMILES: N#Cc1ccccc1-n1ccc2cc(C(=O)N3CC(N4CCN(C(=O)c5ccccc5)CC4)C3)ccc21 [Cpd 588, 2-[5-({3-[4-(Phenylcarbonyl)piperazin-1-yl]azetidin-1-yl}carbonyl)-1H-indol-1-yl]benzonitrile]
Kd (ThermoFluor, compound concentration measured by qNMR, read-out: MGL mutant ThermoFluor qKd (μM) (using qNMR conc.)): 0.512 µM

SMILES: O=C(c1ccccc1)N1CCN(C2CN(C(=O)c3ccc4c(ccn4-c4ncc(F)cn4)c3)C2)CC1 [Cpd 598, 1-(5-Fluoropyrimidin-2-yl)-5-({3-[4-(phenylcarbonyl)piperazin-1-yl]azetidin-1-yl}carbonyl)-1H-indole]
Kd [1]: 0.249 µM

SMILES: Cc1nc(-c2cccc(C(F)(F)F)c2)sc1C(=O)N1CC(N2CCN(C(=O)c3ccccc3)CC2)C1 [Cpd 618, 1-[1-({4-Methyl-2-[3-(trifluoromethyl)phenyl]-1,3-thiazol-5-yl}carbonyl)azetidin-3-yl]-4-(phenylcarbonyl)piperazine]
Kd [1]: 0.08 µM

SMILES: Cc1nc(-c2cccc(Cl)c2)sc1C(=O)N1CC(N2CCN(C(=O)c3ccccc3)CC2)C1 [Cpd 620, 1-(1-{[2-(3-Chlorophenyl)-4-methyl-1,3-thiazol-5-yl]carbonyl}azetidin-3-yl)-4-(phenylcarbonyl)piperazine]
Kd [1]: 0.154 µM

SMILES: O=C(c1ccccc1)N1CCN(C2CN(C(=O)c3ccc(-n4ccc(C(F)(F)F)n4)cc3)C2)CC1 [Cpd 622, 1-(Phenylcarbonyl)-4-[1-({4-[3-(trifluoromethyl)-1H-pyrazol-1-yl]phenyl}carbonyl)azetidin-3-yl]piperazine]
Kd [1]: 3.6 µM

SMILES: O=C(c1ccccc1)N1CCN(C2CN(C(=O)c3cc(-c4ccccc4)oc3C(F)(F)F)C2)CC1 [Cpd 624, 1-(Phenylcarbonyl)-4-(1-{[5-phenyl-2-(trifluoromethyl)furan-3-yl]carbonyl}azetidin-3-yl)piperazine]
Kd [1]: 0.88 µM

SMILES: O=C(c1ccccc1)N1CCN(C2CN(C(=O)c3nc(-c4ccccc4)oc3C(F)(F)F)C2)CC1 [Cpd 625, 1-(Phenylcarbonyl)-4-(1-{[2-phenyl-5-(trifluoromethyl)-1,3-oxazol-4-yl]carbonyl}azetidin-3-yl)piperazine]
Kd [1]: > 31.2 µM

SMILES: O=C(c1ccccc1)N1CCN(C2CN(C(=O)c3cccc(-n4cccc4)c3)C2)CC1 [Cpd 627, 1-(Phenylcarbonyl)-4-(1-{[3-(1H-pyrrol-1-yl)phenyl]carbonyl}azetidin-3-yl)piperazine]
Kd [1]: 10 µM

SMILES: O=C(c1cscn1)N1CCN(C2CN(C(=O)C3CCC(c4ccc(Cl)cc4)CC3)C2)CC1 (stereo not drawn) [Cpd 643]
Kd [1]: 1 µM

SMILES: O=C(c1cscn1)N1CCN(C2CN(C(=O)C3CCC(C(F)(F)F)CC3)C2)CC1 (stereo not drawn) [Cpd 644]
Kd [1]: > 76.7 µM

SMILES: O=C(c1cc(Br)cc(C(F)(F)F)c1)N1CC(N2CCN(C(=O)c3nccs3)CC2)C1 [Cpd 910]
Kd [1]: 1.33 µM

SMILES: O=C(c1ccc2[nH]ccc2c1)N1CC(N2CCN(C(=O)c3nccs3)CC2)C1 [Cpd 911, 5-({3-[4-(1,3-Thiazol-2-ylcarbonyl)piperazin-1-yl]azetidin-1-yl}carbonyl)-1H-indole]
Kd [1]: 0.333 µM

SMILES: O=C(c1ccc(Oc2ccccn2)cc1)N1CC(N2CCN(C(=O)c3nccs3)CC2)C1 [Cpd 913, 1-(1-{[4-(Pyridin-2-yloxy)phenyl]carbonyl}azetidin-3-yl)-4-(1,3-thiazol-2-ylcarbonyl)piperazine]
Kd [1]: 1 µM

SMILES: O=C(c1nccs1)N1CCN(C2CN(C(=O)c3cc(Br)ccc3F)C2)CC1 [Cpd 915]
Kd [1]: 5 µM

Results, then the compound that gave them:

Kd [1]: 0.1 µM
SMILES: O=C(c1ccccc1)N1CCN(C2CN(C(=O)c3ccc(NCc4ccc(F)c(C(F)(F)F)c4)cc3)C2)CC1 [Cpd 494, N-[4-Fluoro-3-(trifluoromethyl)benzyl]-4-({3-[4-(phenylcarbonyl)piperazin-1-yl]azetidin-1-yl}carbonyl)aniline]

Kd [1]: 0.287 µM
SMILES: CC(C)(C)OC(=O)Nc1ccc(C(=O)N2CC(N3CCN(C(=O)c4ccccc4)CC3)C2)cc1 [Cpd 496, tert-Butyl [4-({3-[4-(phenylcarbonyl)piperazin-1-yl]azetidin-1-yl}carbonyl)phenyl]carbamate]

Kd [1]: 3.33 µM
SMILES: O=C(c1ccccc1)N1CCN(C2CN(C(=O)c3ccc(Oc4ccccn4)c(F)c3)C2)CC1 [Cpd 537]

Kd [1]: 1.66 µM
SMILES: O=C(c1ccccc1)N1CCN(C2CN(C(=O)c3ccc(N4CCOCC4)cc3)C2)CC1 [Cpd 541, 4-[4-({3-[4-(Phenylcarbonyl)piperazin-1-yl]azetidin-1-yl}carbonyl)phenyl]morpholine]

Kd [2]: 12.4 µM
SMILES: CC(=O)N1CCC(c2ccc(C(=O)N3CC(N4CCN(C(=O)c5ccccc5)CC4)C3)cc2)CC1 [Cpd 546]

Kd [2]: 0.4 µM
SMILES: O=C(c1ccccc1)N1CCN(C2CN(C(=O)c3ccc(OCc4cccc(Br)n4)cc3)C2)CC1 [Cpd 552]

Kd [2]: 1.99 µM
SMILES: O=C(c1ccccc1)N1CCN(C2CN(C(=O)c3ccc(OCc4cncc(Cl)c4)cc3)C2)CC1 [Cpd 554]

Kd [1]: 2 µM
SMILES: O=C(c1ccccc1)N1CCN(C2CN(C(=O)c3ccc(SCc4cccnc4)cc3)C2)CC1 [Cpd 555]

Kd [1]: 0.114 µM
SMILES: O=C(c1ccccc1)N1CCN(C2CN(C(=O)c3ccc(CNc4ccc(F)c(F)c4F)cc3)C2)CC1 [Cpd 557]

Kd [1]: 0.333 µM
SMILES: Cc1nc(COc2ccc(Cl)cc2)sc1C(=O)N1CC(N2CCN(C(=O)c3ccccc3)CC2)C1 [Cpd 558, 1-[1-({2-[(4-Chlorophenoxy)methyl]-4-methyl-1,3-thiazol-5-yl}carbonyl)azetidin-3-yl]-4-(phenylcarbonyl)piperazine]

Kd [1]: 0.172 µM
SMILES: Cc1nc(-c2ccc(Cl)cc2)sc1C(=O)N1CC(N2CCN(C(=O)c3ccccc3)CC2)C1 [Cpd 619]

Kd [1]: 0.263 µM
SMILES: Cc1nc(-c2ccc(F)cc2)sc1C(=O)N1CC(N2CCN(C(=O)c3ccccc3)CC2)C1 [Cpd 621, 1-(1-{[2-(4-Fluorophenyl)-4-methyl-1,3-thiazol-5-yl]carbonyl}azetidin-3-yl)-4-(phenylcarbonyl)piperazine]

Kd [1]: 1 µM
SMILES: Cc1oc(-c2ccccc2)cc1C(=O)N1CC(N2CCN(C(=O)c3ccccc3)CC2)C1 [Cpd 623, 1-{1-[(2-Methyl-5-phenylfuran-3-yl)carbonyl]azetidin-3-yl}-4-(phenylcarbonyl)piperazine]

Kd [1]: 5.02 µM
SMILES: O=C(c1ccccc1)N1CCN(C2CN(C(=O)c3cnn(-c4ccccc4)c3C(F)(F)F)C2)CC1 [Cpd 626, 1-(Phenylcarbonyl)-4-(1-{[1-phenyl-5-(trifluoromethyl)-1H-pyrazol-4-yl]carbonyl}azetidin-3-yl)piperazine]

Kd [1]: 1.32 µM
SMILES: O=C(c1cc(F)cc(Br)c1)N1CC(N2CCN(C(=O)c3nccs3)CC2)C1 [Cpd 912]
